Earlier results in patent publication US20070160647A1, “Materials for medical implants and occlusive devices” (Clarity Corporation, priority 2004, published 2007).

solubility in DMSO and alcohols: highly soluble | solubility in water: insoluble
SMILES: Oc1cc(Cl)ccc1Oc1ccc(Cl)cc1Cl [triclosan]
